Our source for the inhibition values is PMC8465676, “A Novel Competitive Binding Screening Assay Reveals Sennoside B as a Potent Natural Product Inhibitor of TNF-α” (Biomedicines, 2021).

This assay addresses T1, TNF-α (Homo sapiens, UniProt P01375).
T1 construct: human recombinant TNF-α (PeproTech), intact homotrimer
Description: competitive binding by SEC/ultrafiltration with LC-MS; SPD304 displaced and bound sennoside B detected. As to conditions: read-out: % inhibition of SPD304 signal (at 3.5 μM). In general terms: SEC sorts molecules by how far they enter the pores of the column.

T1 sequence (P01375 77-233): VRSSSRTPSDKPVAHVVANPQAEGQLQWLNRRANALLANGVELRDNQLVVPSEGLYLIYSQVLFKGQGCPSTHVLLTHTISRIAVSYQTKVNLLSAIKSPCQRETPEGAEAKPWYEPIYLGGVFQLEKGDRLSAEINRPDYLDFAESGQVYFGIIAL

The term inhibition denotes how much of the control response was suppressed. Regarding `O=C(O)c1cc(O)c2c(c1)[C@@H]([C@H]1c3cc(C(=O)O)cc(O)c3C(=O)c3c(O[C@@H]4O[C@H](CO)[C@@H](O)[C@H](O)[C@H]4O)cccc31)c1cccc(O[C@@H]3O[C@H](CO)[C@@H](O)[C@H](O)[C@H]3O)c1C2=O` [compound 23, sennoside B], the inhibition at 3.5 µM came to 89.4%.
